Values quoted from earlier work in patent US10155751B2, “Pyrazolyl-substituted heteroaryls and their use as medicaments” (Boehringer Ingelheim International GmbH, priority 2015, dated 2018).

Legend:
Aurora B (AURB) = Aurora B (AURB) (Homo sapiens (Human), UniProt Q96GD4); conditions: Thoma et al, Bioorganic & Medicinal Chemistry Letters (2015); cited from earlier work
[1] = test system: platelet counts in patients with ITP; conditions: Podolanczuk et al, Blood (2009); cited from earlier work

Sequence of Aurora B (AURB) (Q96GD4 whole entry): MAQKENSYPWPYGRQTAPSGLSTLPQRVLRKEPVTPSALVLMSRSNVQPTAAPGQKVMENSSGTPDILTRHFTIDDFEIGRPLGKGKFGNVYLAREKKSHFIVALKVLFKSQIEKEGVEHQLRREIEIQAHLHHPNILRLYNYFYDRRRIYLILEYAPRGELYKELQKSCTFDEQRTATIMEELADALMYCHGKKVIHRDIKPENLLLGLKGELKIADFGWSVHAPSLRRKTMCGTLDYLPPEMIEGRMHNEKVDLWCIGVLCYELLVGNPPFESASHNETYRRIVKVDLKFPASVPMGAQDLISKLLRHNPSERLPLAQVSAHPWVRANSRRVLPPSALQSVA

Row | Structure (SMILES) | inhibition of Aurora B (AURB) (Aurora B (AURB)) | platelet counts [1]
1 | C[C@@H](Oc1cc(-c2cnn(C3CC3)c2)cc2nn(C)c(F)c12)[C@H]1CNC(=O)C1 [compound No. 5] | inhibited Aurora B | –
2 | COc1cc(Nc2ncc(F)c(Nc3ccc4c(n3)N(COP(=O)(O)O)C(=O)C(C)(C)O4)n2)cc(OC)c1OC [Example R788] | – | improved platelet counts
